In this assay the test system is E. coli. The assay is described as follows: Resazurin fluorescence assay of E. coli mixed with ampicillin. Format: cell-based. To be noted: for fluorescence: 583 nm; for increase in fluorescence signal compared to resazurin alone: 4 hr incubation. The source says: In some examples, the metabolic indicator includes a fluorogenic compound. A non-limiting example of a fluorogenic compound that may be used as a metabolic indicator includes resazurin which is transformed to resorufin when mixed with living cells, such as with bacteria. […] Resorufin is fluorescent, which allows for monitoring the reaction. For example, resorufin is excited at around 540 nanometers (nm) and emits around 590 nm. Living cells, such as bacteria, may be mixed with resazurin for around one to four hours. For example, after incubation and to overcome the background signal, around 7×10^6 colony forming unit per milliliter (cfu/mL) of Escherichia coli may be present.
FIG. 2C illustrates the example apparatus 200 of FIG. 2A while the imaging device is capturing images of the substrate, in accordance with the present disclosure. As described with regards to FIG. 2B, the imaging device 215 may capture images at any point in time, and/or once a statiscially significant signal is detected. Also, as described with regards to FIG. 2A, resazurin reduction results in an increase in fluorescence. Accordingly, as bacterial concentration increases over time, more resazurin reduction results and the result is an increase in fluorescence. Antibiotic combinations that disrupt bacterial growth may therefore have less fluorescence than those combinations which have no effect. […] This conclusion may be obtained, because region 219-4, region 219-3, and region 219-2 each have a greater fluorescence level as compared to region 219-1, which is the result of more resazurin reduction by living cells (such as bacteria).
Background conversion of resazurin to resorufin (in absence of bacteria) can be calibrated out for increased sensitivity and reduction of assay time. Moreover, the minimum inhibitory concentration of the antibiotic (or antibiotic combination) can be measured, because the microfluidic device 211 is capable of dispensing very small volumes of reagents (e.g., antibiotics), as well as precise volumes of reagent combinations. The rate of fluorescence increase can be correlated to bacterial growth rate and thus the inhibition potential of a particular antibiotic can be measured, as illustrated in the graph included in FIG. 2C. This fluorescence readout may be obtained between 3 and 6 hours, and may thus be used for fast determination of combinations of antibiotics for antibiotic treatment.
As illustrated in the top portion of FIG. 6, a MIC test strip from Liofilchem® containing a gradient of ampicillin was applied on an agar plate coated with E. coli. The minimum inhibitory concentration of ampicillin was approximately 2 μg/mL. The E. coli was mixed with various concentrations of ampicillin (0 to 8 μg/mL) and resazurin, and the fluorescence was measured at various times. The concentrations of ampicillin used was 0 μg/mL, 0.25 μg/mL, 0.5 μg/mL, 1 μg/mL, 2 μg/mL, and 8 μg/mL. […] For the sample including E. coli and 8 μg/mL of ampicillin, the fluorescence increased from approximately 10,000 a.u. at 30 minutes, to approximately, 35,000 a.u. at 3 hours and 4 hours. For the sample including E. coli and 0 μg/mL of ampicillin, the fluorescence increased from approximately 10,000 a.u. at 30 minutes, to approximately, 50,000 a.u. at 3 hours and 10^5 a.u at 4 hours. For the sample including E. coli and 0.25 μg/mL of ampicillin, the fluorescence increased from approximately 10,000 a.u. at 30 minutes, to approximately 60,000 a.u. at 3 hours, and approximately 80,000 a.u. at 4 hours. For the sample including E. coli and 0.5 μg/mL of ampicillin, the fluorescence increased from approximately 10,000 a.u. at 30 minutes, to approximately 70,000 a.u. at 3 hours, and approximately 80,000 a.u. at 4 hours. For the sample including E. coli and 1 μg/mL of ampicillin, the fluorescence increased from approximately 10,000 a.u. at 30 minutes, to approximately 75,000 a.u. at 3 hours, and approximately 10^5 a.u. at 4 hours. […]

Consider 1 compound from US20250027966A1, “A MICROFLUIDIC DEVICE TO DISPENSE A METABOLIC INDICATOR” (Hewlett-Packard Development Company, L.P., priority 2021, published 2025).

Each structure is given as a SMILES string.

Turning to `CC1(C)S[C@@H]2[C@H](NC(=O)[C@H](N)c3ccccc3)C(=O)N2[C@H]1C(=O)O` [ampicillin], the fluorescence entry (E. coli + 0.25 μg/mL ampicillin + resazurin, 30 minutes) is “approximately 10,000 a.u”; the fluorescence result (E. coli + 0.25 μg/mL ampicillin + resazurin, 3 hours) is reported as “approximately 60,000 a.u”; the fluorescence result (E. coli + 0.25 μg/mL ampicillin + resazurin, 4 hours) is “approximately 80,000 a.u”; the fluorescence result (E. coli + 0.5 μg/mL ampicillin + resazurin, 30 minutes) is on record as “approximately 10,000 a.u”; the fluorescence entry (E. coli + 0.5 μg/mL ampicillin + resazurin, 3 hours) is “approximately 70,000 a.u”; the fluorescence result (E. coli + 0.5 μg/mL ampicillin + resazurin, 4 hours) is listed as “approximately 80,000 a.u”. Further, the fluorescence entry (E. coli + 1 μg/mL ampicillin + resazurin, 30 minutes) is recorded as “approximately 10,000 a.u”; the fluorescence entry (E. coli + 1 μg/mL ampicillin + resazurin, 3 hours) is on record as “approximately 75,000 a.u”; the fluorescence result (E. coli + 2 μg/mL ampicillin + resazurin, 30 minutes) is “approximately 10,000 a.u”; the fluorescence entry (E. coli + 2 μg/mL ampicillin + resazurin, 3 hours) is recorded as “approximately 75,000 a.u”; the fluorescence result (E. coli + 8 μg/mL ampicillin + resazurin, 30 minutes) is “approximately 10,000 a.u”; the fluorescence (E. coli + 8 μg/mL ampicillin + resazurin, 3 hours) is on record as ~35,000 a.u. Also, the fluorescence (E. coli + 8 μg/mL ampicillin + resazurin, 4 hours) is ~35,000 a.u. Further, the “increase in fluorescence signal compared to resazurin alone” value ([ampicillin]<2 μg/mL) is listed as 6 × and the “increase in fluorescence signal compared to resazurin alone” value (ampicillin 8 μg/mL) is given as 2 ×.
